Assay results reported in PubChem BioAssay AID2060607 (Molecular Pharmacology Branch, DTP, NCI, 2025).
One block for each molecule: values may come before it.

System: 876862-298-R-J1-PDC complex spheroids, viability % test/control
Assay: Anticancer human tumor 876862-298-R-J1-PDC patient-derived endometrial carcinoma cell line growth inhibition [CLK]
Conditions: for IC50: curve of first compound; for viability, T/C: stronger effect = lower value
Method in brief: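 Patient-derived tumor cells grown as complex spheroids with HUVEC endothelial cells and mesenchymal stem cells, treated with drug combinations. Concentrations descend in half-log steps from near clinical Cmax, or from 10 microM if Cmax unknown.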

[1] = second compound 0.0316 µM, first compound 0.0316 µM
[2] = second compound 0.0316 µM, first compound 0.1 µM
[3] = second compound 0.0316 µM, first compound 0.316 µM
[4] = second compound 0.0316 µM, first compound 1 µM
[5] = second compound 0.0316 µM, first compound 3.16 µM
[6] = second compound 0.0316 µM, first compound 10 µM
[7] = second compound 0.1 µM, first compound 0.0316 µM
[8] = second compound 0.1 µM, first compound 0.1 µM
[9] = second compound 0.1 µM, first compound 0.316 µM
[10] = second compound 0.1 µM, first compound 1 µM
[11] = second compound 0.1 µM, first compound 3.16 µM
[12] = second compound 0.1 µM, first compound 10 µM
[13] = second compound 0.316 µM, first compound 0.0316 µM
[14] = second compound 0.316 µM, first compound 0.1 µM
[15] = second compound 0.316 µM, first compound 0.316 µM
[16] = second compound 0.316 µM, first compound 1 µM
[17] = second compound 0.316 µM, first compound 3.16 µM
[18] = second compound 0.316 µM, first compound 10 µM
[19] = second compound 1 µM, first compound 0.0316 µM
[20] = second compound 1 µM, first compound 0.1 µM
[21] = second compound 1 µM, first compound 0.316 µM
[22] = second compound 1 µM, first compound 1 µM
[23] = second compound 1 µM, first compound 3.16 µM
[24] = second compound 1 µM, first compound 10 µM
[25] = second compound 3.16 µM, first compound 0.0316 µM
[26] = second compound 3.16 µM, first compound 0.1 µM
[27] = second compound 3.16 µM, first compound 0.316 µM
[28] = second compound 3.16 µM, first compound 1 µM
[29] = second compound 3.16 µM, first compound 3.16 µM
[30] = second compound 3.16 µM, first compound 10 µM
[31] = second compound 10 µM, first compound 0.0316 µM
[32] = second compound 10 µM, first compound 0.1 µM
[33] = second compound 10 µM, first compound 0.316 µM
[34] = second compound 10 µM, first compound 1 µM
[35] = second compound 10 µM, first compound 3.16 µM
[36] = second compound 10 µM, first compound 10 µM
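Further: spheroids exposed to drugs for 7 days before readout.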
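Wherever viability, T/C is given: 100% = DMSO vehicle control wells.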

- IC50 (second compound 0.0316 µM): > 10000 nM
- IC50 (second compound 0.1 µM): < 31.6 nM
- IC50 (second compound 0.316 µM): < 31.6 nM
- IC50 (second compound 1 µM): < 31.6 nM
- IC50 (second compound 3.16 µM): < 31.6 nM
- IC50 (second compound 10 µM): < 31.6 nM
SMILES: C#Cc1c(F)ccc2cc(O)cc(-c3ncc4c(N5CC6CCC(C5)N6)nc(OCC56CCCN5CC(F)C6)nc4c3F)c12 (stereo not given) + CNC(=O)c1ccc(Nc2nc(OC3CCCC3)c3c(-c4ccc5nc(C)oc5c4)c[nH]c3n2)c(OC)c1
- viability, T/C [1]: 65.6%
- viability, T/C [2]: 88.8%
- viability, T/C [3]: 71.9%
- viability, T/C [4]: 75.3%
- viability, T/C [5]: 76.3%
- viability, T/C [6]: 71.4%
- viability, T/C [7]: 46.5%
- viability, T/C [8]: 52.8%
- viability, T/C [9]: 42.7%
- viability, T/C [10]: 46.6%
- viability, T/C [11]: 49.9%
- viability, T/C [12]: 38.2%
- viability, T/C [13]: 38%
- viability, T/C [14]: 40.4%
- viability, T/C [15]: 38.9%
- viability, T/C [16]: 41.7%
- viability, T/C [17]: 39.6%
- viability, T/C [18]: 34.4%
- viability, T/C [19]: 33.5%
- viability, T/C [20]: 34.9%
- viability, T/C [21]: 27.7%
- viability, T/C [22]: 30.5%
- viability, T/C [23]: 32.9%
- viability, T/C [24]: 26.2%
- viability, T/C [25]: 23.6%
- viability, T/C [26]: 22.1%
- viability, T/C [27]: 22.8%
- viability, T/C [28]: 21.7%
- viability, T/C [29]: 24.9%
- viability, T/C [30]: 20.2%
- viability, T/C [31]: 20.1%
- viability, T/C [32]: 20.4%
- viability, T/C [33]: 21.4%
- viability, T/C [34]: 21.6%
- viability, T/C [35]: 20.3%
- viability, T/C [36]: 19.4%

- IC50 (second compound 0.0316 µM): 4840 nM
- IC50 (second compound 0.1 µM): < 31.6 nM
- IC50 (second compound 0.316 µM): < 31.6 nM
- IC50 (second compound 1 µM): < 31.6 nM
- IC50 (second compound 3.16 µM): < 31.6 nM
- IC50 (second compound 10 µM): < 31.6 nM
SMILES: C=C(F)C(=O)N1CCN(c2nc(OCC3CCCN3C)nc3c2CCN(c2cccc4cccc(Cl)c24)C3)CC1CC#N (stereo not given) + CNC(=O)c1ccc(Nc2nc(OC3CCCC3)c3c(-c4ccc5nc(C)oc5c4)c[nH]c3n2)c(OC)c1
- viability, T/C [1]: 61.2%
- viability, T/C [2]: 84.6%
- viability, T/C [3]: 74.5%
- viability, T/C [4]: 84.6%
- viability, T/C [5]: 87.3%
- viability, T/C [6]: 1.29%
- viability, T/C [7]: 47.9%
- viability, T/C [8]: 49.9%
- viability, T/C [9]: 47.5%
- viability, T/C [10]: 48.3%
- viability, T/C [11]: 38.8%
- viability, T/C [12]: 2.57%
- viability, T/C [13]: 42.1%
- viability, T/C [14]: 39.7%
- viability, T/C [15]: 43.1%
- viability, T/C [16]: 39.1%
- viability, T/C [17]: 31.5%
- viability, T/C [18]: 1.59%
- viability, T/C [19]: 33.1%
- viability, T/C [20]: 33.1%
- viability, T/C [21]: 32.6%
- viability, T/C [22]: 27.1%
- viability, T/C [23]: 27.6%
- viability, T/C [24]: 0.79%
- viability, T/C [25]: 22.3%
- viability, T/C [26]: 24.6%
- viability, T/C [27]: 22.1%
- viability, T/C [28]: 21.8%
- viability, T/C [29]: 21.8%
- viability, T/C [30]: 0.16%
- viability, T/C [31]: 23.3%
- viability, T/C [32]: 22.4%
- viability, T/C [33]: 19.5%
- viability, T/C [34]: 21.6%
- viability, T/C [35]: 18.6%
- viability, T/C [36]: 0.21%

- IC50 (second compound 0.0316 µM): > 10000 nM
- IC50 (second compound 0.1 µM): 322 nM
- IC50 (second compound 0.316 µM): < 31.6 nM
- IC50 (second compound 1 µM): < 31.6 nM
- IC50 (second compound 3.16 µM): < 31.6 nM
- IC50 (second compound 10 µM): < 31.6 nM
SMILES: C=CC(=O)N1CCN(c2nc(=O)n(-c3c(C)ccnc3C(C)C)c3nc(-c4c(O)cccc4F)c(F)cc23)C(C)C1 (stereo not given) + CNC(=O)c1ccc(Nc2nc(OC3CCCC3)c3c(-c4ccc5nc(C)oc5c4)c[nH]c3n2)c(OC)c1
- viability, T/C [1]: 70.2%
- viability, T/C [2]: 84.2%
- viability, T/C [3]: 69%
- viability, T/C [4]: 90.2%
- viability, T/C [5]: 80.9%
- viability, T/C [6]: 60.5%
- viability, T/C [7]: 52.4%
- viability, T/C [8]: 54.5%
- viability, T/C [9]: 46%
- viability, T/C [10]: 46.9%
- viability, T/C [11]: 50.2%
- viability, T/C [12]: 41%
- viability, T/C [13]: 42.7%
- viability, T/C [14]: 43.5%
- viability, T/C [15]: 42.2%
- viability, T/C [16]: 39.6%
- viability, T/C [17]: 46.1%
- viability, T/C [18]: 35.2%
- viability, T/C [19]: 32.4%
- viability, T/C [20]: 29.6%
- viability, T/C [21]: 30.1%
- viability, T/C [22]: 29.3%
- viability, T/C [23]: 29.3%
- viability, T/C [24]: 23.3%
- viability, T/C [25]: 24%
- viability, T/C [26]: 25.2%
- viability, T/C [27]: 23.1%
- viability, T/C [28]: 21.6%
- viability, T/C [29]: 23.5%
- viability, T/C [30]: 13.6%
- viability, T/C [31]: 24.6%
- viability, T/C [32]: 19.5%
- viability, T/C [33]: 19.1%
- viability, T/C [34]: 22.7%
- viability, T/C [35]: 20.1%
- viability, T/C [36]: 10.2%

- IC50 (second compound 0.0316 µM): 7040 nM
- IC50 (second compound 0.1 µM): < 31.6 nM
- IC50 (second compound 0.316 µM): < 31.6 nM
- IC50 (second compound 1 µM): < 31.6 nM
- IC50 (second compound 3.16 µM): < 31.6 nM
- IC50 (second compound 10 µM): < 31.6 nM
SMILES: CCCS(=O)(=O)Nc1ccc(F)c(C(=O)c2c[nH]c3ncc(-c4ccc(Cl)cc4)cc23)c1F + CNC(=O)c1ccc(Nc2nc(OC3CCCC3)c3c(-c4ccc5nc(C)oc5c4)c[nH]c3n2)c(OC)c1
- viability, T/C [1]: 72.1%
- viability, T/C [2]: 89.1%
- viability, T/C [3]: 88.1%
- viability, T/C [4]: 90.9%
- viability, T/C [5]: 68.2%
- viability, T/C [6]: 42%
- viability, T/C [7]: 40.2%
- viability, T/C [8]: 54.9%
- viability, T/C [9]: 50.5%
- viability, T/C [10]: 49.2%
- viability, T/C [11]: 40.4%
- viability, T/C [12]: 26.6%
- viability, T/C [13]: 45.6%
- viability, T/C [14]: 41.2%
- viability, T/C [15]: 43.8%
- viability, T/C [16]: 40.1%
- viability, T/C [17]: 31.7%
- viability, T/C [18]: 18.1%
- viability, T/C [19]: 36.9%
- viability, T/C [20]: 32%
- viability, T/C [21]: 30.7%
- viability, T/C [22]: 32.7%
- viability, T/C [23]: 22.4%
- viability, T/C [24]: 12.7%
- viability, T/C [25]: 23.5%
- viability, T/C [26]: 25.1%
- viability, T/C [27]: 21.2%
- viability, T/C [28]: 26.1%
- viability, T/C [29]: 19.1%
- viability, T/C [30]: 10.8%
- viability, T/C [31]: 23.1%
- viability, T/C [32]: 21.4%
- viability, T/C [33]: 21%
- viability, T/C [34]: 22.3%
- viability, T/C [35]: 15.9%
- viability, T/C [36]: 10.4%

- IC50 (second compound 0.0316 µM): 6470 nM
- IC50 (second compound 0.1 µM): < 31.6 nM
- IC50 (second compound 0.316 µM): < 31.6 nM
- IC50 (second compound 1 µM): < 31.6 nM
- IC50 (second compound 3.16 µM): < 31.6 nM
- IC50 (second compound 10 µM): < 31.6 nM
SMILES: COC1C=CCC(C)C(C)S(=O)(=O)NC(=O)c2ccc3c(c2)N(CC2CCC21)CC1(CCCc2cc(Cl)ccc21)CO3 (stereo not given) + CNC(=O)c1ccc(Nc2nc(OC3CCCC3)c3c(-c4ccc5nc(C)oc5c4)c[nH]c3n2)c(OC)c1
- viability, T/C [1]: 72%
- viability, T/C [2]: 92.5%
- viability, T/C [3]: 66.1%
- viability, T/C [4]: 104%
- viability, T/C [5]: 86.2%
- viability, T/C [6]: 29.1%
- viability, T/C [7]: 46.2%
- viability, T/C [8]: 45.4%
- viability, T/C [9]: 37.3%
- viability, T/C [10]: 32.2%
- viability, T/C [11]: 30.3%
- viability, T/C [12]: 21.5%
- viability, T/C [13]: 40.3%
- viability, T/C [14]: 33.6%
- viability, T/C [15]: 29.8%
- viability, T/C [16]: 24.8%
- viability, T/C [17]: 20.5%
- viability, T/C [18]: 19.1%
- viability, T/C [19]: 31.9%
- viability, T/C [20]: 25.8%
- viability, T/C [21]: 20.6%
- viability, T/C [22]: 17.6%
- viability, T/C [23]: 13.8%
- viability, T/C [24]: 13.5%
- viability, T/C [25]: 26.1%
- viability, T/C [26]: 20.3%
- viability, T/C [27]: 15.6%
- viability, T/C [28]: 12%
- viability, T/C [29]: 9.4%
- viability, T/C [30]: 7.9%
- viability, T/C [31]: 22.6%
- viability, T/C [32]: 19%
- viability, T/C [33]: 12.3%
- viability, T/C [34]: 12.3%
- viability, T/C [35]: 9.91%
- viability, T/C [36]: 5.3%
